According to article PMC10819171, “Development of Pleiotropic TrkB and 5-HT4 Receptor Ligands as Neuroprotective Agents” (Molecules, 2024):

Tests used:
[1] = target: T1, HA-tagged human 5-HT4 receptor (Homo sapiens, UniProt Q13639); assay: cell-based; parameters: cAMP production by HTRF in transiently transfected COS-7 cells, 10 min, with RO-20-1724; settings: COS-7; read-out: Top AMPc
T1 construct: gene HTR4; HA-tagged, transiently expressed in COS-7 cells
Protocol: COS-7 cells were purchased from ATCC (ATCC CRL-1651; LGC […], Molsheim, France). They were grown in Dulbecco’s modified Eagle medium (DMEM) supplemented with 10% dialyzed fetal calf serum (dFCS) and antibiotics. The cells were transiently transfected with the plasmid encoding HA-tagged human 5-HT4 receptor, then seeded in 96-wells plate (35,000 cells/well). Approximately 24 hrs after transfection, the cells were washed once with 200 µL of HBS (20 mM HEPES; 150 mM NaCl; 4.2 mM KCl; 0.9 mM CaCl2; 0.5 mM MgCl2; 0.1% glucose; 0.1% BSA) and, after HBS removal, exposed to the indicated concentrations of 5-HT4R ligands in the presence of 0.1 mM of the phosphodiesterase inhibitor RO-20-1724, at 37 °C in 100 µL of HBS. After 10 min, the cells were then lysed by the addition of the same volume of Triton-X100 (0.1%) during 30 min at 37 °C. Quantification of the cAMP production was performed by HTRF by using the cAMP—HTRF Gs Dynamic kit (Perkin Elmer, Codolet, France) according to the manufacturer’s instructions. 2.2.4.

5-HT4 receptor [2] = target: T2, 5-HT4 receptor (Homo sapiens, UniProt Q13639); assay: [3H]-GR113808 radioligand competition, five-point inhibition curves; partial agonist in cAMP HTRF assay; type: binding
T2 construct: gene HTR4
T2 sequence (Q13639 whole entry): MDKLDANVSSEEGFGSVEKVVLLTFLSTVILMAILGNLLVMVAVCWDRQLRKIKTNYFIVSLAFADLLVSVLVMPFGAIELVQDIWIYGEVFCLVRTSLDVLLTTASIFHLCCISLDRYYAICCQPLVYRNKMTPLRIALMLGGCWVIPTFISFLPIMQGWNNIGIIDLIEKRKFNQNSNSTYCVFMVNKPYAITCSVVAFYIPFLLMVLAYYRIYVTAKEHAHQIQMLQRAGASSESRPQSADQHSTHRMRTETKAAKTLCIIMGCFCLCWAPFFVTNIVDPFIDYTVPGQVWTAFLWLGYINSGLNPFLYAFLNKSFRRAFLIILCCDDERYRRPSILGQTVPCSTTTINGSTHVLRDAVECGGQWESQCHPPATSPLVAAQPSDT

5-HT4 receptor [3] = target: T2, 5-HT4 receptor; assay: [3H]-GR113808 radioligand displacement at two concentrations; type: binding; settings: read-out: 5-HT4R (1 × 10^-6 M)
5-HT4 receptor [4] = target: T2, 5-HT4 receptor; assay: [3H]-GR113808 radioligand displacement at two concentrations; partial agonist reference in cAMP assay; type: binding; settings: read-out: 5-HT4R (1 × 10^-6 M)

T1 sequence (Q13639 whole entry): as above

| Ki (5-HT4 receptor [2]) [nM] | inhibition at 1 µM (5-HT4 receptor [3]) [%] | SMILES | Emax [1] [%] | inhibition at 1 µM (5-HT4 receptor [4]) [%] |
| --- | --- | --- | --- | --- |
| 42.6 ± 4.1 | – | COc1cc(N)c(Cl)cc1C(=O)CCC1CCN(CCNC(=O)c2cc(C(=O)NCCO)cc(C(=O)NCCO)c2)CC1 [compound 8, N^1-(2-{4-[3-(4-amino-5-chloro-2-methoxyphenyl)-3-oxopropyl]piperidin-1-yl}ethyl)-N^3,N^5-bis(2-hydroxyethyl)benzene-1,3,5-tricarboxamide] | 48 | – |
| – | 82 | COc1cc(N)c(Cl)cc1C(=O)CCC1CCN(CCCNC(=O)c2cc(C(=O)NCCO)cc(C(=O)NCCO)c2)CC1 [compound 13, N^1-(3-(4-(3-(4-amino-5-chloro-2-methoxyphenyl)-3-oxopropyl)piperidin-1-yl)propyl)-N^3,N^5-bis(2-hydroxyethyl)benzene-1,3,5-tricarboxamide] | – | – |
| – | 55 | COc1cc(N)c(Cl)cc1C(=O)CCC1CCN(CCOCCNC(=O)c2cc(C(=O)NCCO)cc(C(=O)NCCO)c2)CC1 [compound 19, N^1-(2-(2-(4-(3-(4-amino-5-chloro-2-methoxyphenyl)-3-oxopropyl)piperidin-1-yl)ethoxy)ethyl)-N^3,N^5-bis(2-hydroxyethyl)benzene-1,3,5-tricarboxamide] | – | – |
| – | – | CCCCN1CCC(CCC(=O)c2cc(Cl)c(N)cc2OC)CC1 [RS67333] | 68 | 100 |
